Data set [1] deals with unprenylated Rap1A (uRap1A). As to the kind of experiment: Prenylation assay: Western blot for unprenylated Rap1A in J774.2 macrophages. Type of data set: cell-based, mouse. To be noted: 10 or 100 μM, 24 h, FIG. 5A-C. The method, then: To determine the effect of fluorescent BP probes on protein prenylation, J774.2 mouse macrophages were plated out at 2×10^5 cells/mL in 24-well plates and left to adhere overnight. Cells were then treated with 10 or 100 μM of fluorescent analogues of RIS, dRIS, and ZOL, the respective native BP, or vehicle, for 24 h. Cells were lysed in radioimmunoprecipitation buffer, and proteins were separated by sodium dodecyl sulfate polyacrylamide gel electrophoresis and transferred to polyvinyl difluoride membranes by western blotting. Membranes were then incubated with antibodies to the unprenylated form of Rap1A (uRap1A) and the housekeeping protein β-actin, which were detected by incubation with fluorescently-labeled secondary antibodies and scanning of membranes on a LI-COR Infrared Imager. Results shown are representative of 2 independent experiments. The ratio between abundance of unprenylated RaplA and β-actin is indicated for each sample below the blots in FIG. 5.

The conditions of data set [2]: assumed the same as the corresponding fluorescent dye, cited from earlier work.
Data set [3] in a line: UV-VIS absorption and fluorescence emission spectra. Type of data set: physicochemical. To be noted: 0.1M phosphate buffer (1x PBS for 7d5); ± 1 nm error. The method, then: All labeled samples were dissolved in water and diluted with 0.1 M phosphate buffer or 1×PBS (for 7d5). Assuming that the labeled bisphosphonates have the same extinction coefficient (E) as the carboxylic acid of the free fluorescent label, the final concentrations for all labeled products were calculated from UV-VIS absorption spectra at λ=493 nm (ε=73000 M^−1 cm^−1 at pH 7.2) for FAM conjugates (7a1-7a3, 7b1, 7c1, 7d1-7d2, 7e1-7e2, 7f1-7f2), λ=567.5 nm (ε=114850 M^−1cm^−1 at pH 7.5) for RhR-X conjugates (7a4, 7b2, 7c2), λ=580 nm (c=72000 M^−1cm^−1 at pH 8.0) for ROX conjugates (7a5, 7b3), λ=648 nm (ε=240000 M^−1cm^−1 at pH 7.2) for AF647 conjugates (7a6, 7b4, 7d3), λ=774 nm (ε=240000 M^−1cm^−1 at pH 7.4) for 800CW conjugates (7d4), λ=644 nm (ε=271000 M^−1cm^−1 at pH 7.4, 1×PBS) for Sulfo-Cy5 conjugates (7d5).
Emission spectra for FAM and RhR-X conjugates were recorded using an excitation wavelength of 490 nm or 520 nm, respectively. Emission spectra for AF647 conjugates and Sulfo-Cy5 conjugates were recorded using an excitation wavelength of 600 nm. Emission spectra of 5(6)-ROX conjugates were recorded using an excitation wavelength of 575 nm. Emission spectra of IRDye CW800 conjugate was recorded using an excitation wavelength of 750 nm. The set-up of excitation slit, emission slit, integration time and increment were determined to get optimal spectra for each compound respectively, depending on the sample concentration and spectrometer used.

Like-named read-outs stand apart in the source and are kept apart here.

Consider “1-(3-(3-carboxy-4-(6-hydroxy-3-oxo-3H-xanthen-9-yl)benzamido)-2-hydroxypropyl)-3-(2-hydroxy-2,2-diphosphonoethyl)pyridin-1-ium [Compound 5-FAM-RIS]”, for which the “accumulation of unprenylated Rap1A (anti-prenylation activity)” value in data set [1] is reported as “clearly detectable”. Further, the Extinction coefficient in data set [2] (pH 7.2, 0.1M phosphate buffer) is on record as 73,000 (pH 7.2) M^−1cm^−1. Moreover, in data set [3], the “Maximum absorption wavelength (λmax (abs), nm)” value (“Maximum absorption wavelength” for short) was 493 nm and the “Maximum emission wavelength (λmax (em), nm)” value (from here on “Maximum emission wavelength”) worked out at 521 nm.

`CC1(C)C(C=CC=CC=C2N(CCCS(=O)(=O)O)c3ccc(S(=O)(=O)O)cc3C2(C)CCCCCC(=O)NCC(O)C[n+]2cccc(CC(O)(C(=O)O)P(=O)(O)O)c2)=[N+](CCCS(=O)(=O)O)c2ccc(S(=O)(=O)O)cc21` (stereo not shown) [AF647-RISPC, 2-(5-(3-(6-((3-(3-(2-carboxy-2-hydroxy-2-phosphonoethyl)pyridin-1-ium-1-yl)-2-hydroxypropyl)amino)-6-oxohexyl)-3-methyl-5-sulfo-1-(3-sulfopropyl)indolin-2-ylidene)penta-1,3-dien-1-yl)-3,3-dimethyl-5-sulfo-1-(3-sulfopropyl)-3H-indol-1-ium]: in data set [2] (pH 7.0, 0.1M phosphate buffer), the Extinction coefficient is 240,000 (pH 7.0) M^−1cm^−1. Further, in data set [3], the “Maximum absorption wavelength” value is 648 nm and the “Maximum emission wavelength” value is on record as 666 nm.

As to `CCN(CC)c1ccc2c(-c3ccc(S(=O)(=O)NCCCCCC(=O)NCC(O)C[n+]4cccc(CC(O)(C(=O)O)P(=O)(O)O)c4)cc3S(=O)(=O)O)c3ccc(=[N+](CC)CC)cc-3oc2c1` (stereo not shown) [5(6)-RhR-RISPC, 3-(2-carboxy-2-hydroxy-2-phosphonoethyl)-1-{3-[6-({4-[6-(diethylamino)-3-(diethylimino)-3H-xanthen-9-yl]-3-sulfobenzene}sulfonamido)hexanamido]-2-hydroxypropyl}pyridinium], the Extinction coefficient in data set [2] (pH 7.5, 0.1M phosphate buffer) was 114,850 (pH 7.5) M^−1cm^−1. For the same compound, in data set [3], the “Maximum absorption wavelength” value is 568 nm and the “Maximum emission wavelength” value was 589 nm.

As for `CCN(CC)c1ccc2c(-c3ccc(S(=O)(=O)NCCCCCC(=O)NCC(O)C[n+]4cccc(CC(O)(P(=O)(O)O)P(=O)(O)O)c4)cc3S(=O)(=O)O)c3ccc(=[N+](CC)CC)cc-3oc2c1` (stereo not shown) [5(6)-RhR-RIS, 1-{3-[6-({4-[6-(diethylamino)-3-(diethylimino)-3H-xanthen-9-yl]-3-sulfobenzene}sulfonamido)hexanamido]-2-hydroxypropyl}-3-(2-hydroxy-2,2-diphosphonoethyl)pyridinium], the Extinction coefficient in data set [2] (pH 7.5, 0.1M phosphate buffer) was 114,850 (pH 7.5) M^−1cm^−1. Further, in data set [3], the “Maximum absorption wavelength” value is 567.5 nm and the “Maximum emission wavelength” value is 589 nm.

Take “2-(5-(3-(6-((2-hydroxy-3-(1-(2-hydroxy-2,2-diphosphonoethyl)-1H-imidazol-3-ium-3-yl)propyl)amino)-6-oxohexyl)-3-methyl-5-sulfo-1-(3-sulfopropyl)indolin-2-ylidene)penta-1,3-dien-1-yl)-3,3-dimethyl-5-sulfo-1-(3-sulfopropyl)-3H-indol-1-ium [AF647-ZOL]”: the Extinction coefficient in data set [2] (pH 7.0, 0.1M phosphate buffer) is recorded as 240,000 (pH 7.0) M^−1cm^−1. In data set [3], the “Maximum absorption wavelength” value came to 648.5 nm and the “Maximum emission wavelength” value stood at 666 nm.

In the case of `CCN(CC)c1ccc2c(-c3ccc(S(=O)(=O)NCCCCCC(=O)NCC(O)C[n+]4cccc(CC(P(=O)(O)O)P(=O)(O)O)c4)cc3S(=O)(=O)O)c3ccc(=[N+](CC)CC)cc-3oc2c1` (stereo not shown) [5(6)-RhR-dRIS, 1-{3-[6-({4-[6-(diethylamino)-3-(diethylimino)-3H-xanthen-9-yl]-3-sulfobenzene}sulfonamido)hexanamido]-2-hydroxypropyl}-3-(2,2-diphosphonoethyl)pyridin-1-ium], the Extinction coefficient in data set [2] (pH 7.5, 0.1M phosphate buffer) is 114,850 (pH 7.5) M^−1cm^−1. In addition, in data set [3], the “Maximum absorption wavelength” value came to 567.5 nm and the “Maximum emission wavelength” value came to 589 nm.

For “16-[2-carboxy-4-({3-[4-(2-carboxy-2-hydroxy-2-phosphonoethyl)pyridin-1-ium-1-yl]-2-hydroxypropyl}carbamoyl)phenyl]-3-oxa-9λ^5,23-diazaheptacyclo[17.7.1.1^5,9.0^2,17.0^4,15.0^23,27.0^13,28]octacosa-1(27),2(17),4,9(28), 13,15,18-heptaen-9-ylium [5(6)-ROX-RISPC]”, the Extinction coefficient in data set [2] (pH 8.0, 0.1M phosphate buffer) is listed as 72,000 (pH 8.0) M^−1cm^−1. In addition, in data set [3], the “Maximum absorption wavelength” value is listed as 579 nm and the “Maximum emission wavelength” value is reported as 606 nm.

Take `O=C(NCC(O)C[n+]1cc(CC(O)(P(=O)(O)O)P(=O)(O)O)n2ccccc21)c1ccc(C(=O)O)c(-c2c3ccc(=O)cc-3oc3cc(O)ccc23)c1` (stereo not shown) [Compound 6-FAM-MIN, 1-(3-(4-carboxy-3-(6-hydroxy-3-oxo-3H-xanthen-9-yl)benzamido)-2-hydroxypropyl)-3-(2-hydroxy-2,2-diphosphonoethyl)imidazo[1,2-a]pyridin-1-ium]: the Extinction coefficient in data set [2] (pH 7.2, 0.1M phosphate buffer) was 73,000 (pH 7.2) M^−1cm^−1. In addition, in data set [3], the “Maximum absorption wavelength” value is given as 493 nm and the “Maximum emission wavelength” value was determined as 518 nm.

As to `O=C(NCC(O)C[n+]1cc(CC(O)(P(=O)(O)O)P(=O)(O)O)n2ccccc21)c1ccc(-c2c3ccc(=O)cc-3oc3cc(O)ccc23)c(C(=O)O)c1` (stereo not shown) [Compound 5-FAM-MIN, 1-(3-(3-carboxy-4-(6-hydroxy-3-oxo-3H-xanthen-9-yl)benzamido)-2-hydroxypropyl)-3-(2-hydroxy-2,2-diphosphonoethyl)imidazo[1,2-a]pyridin-1-ium], in data set [2] (pH 7.2, 0.1M phosphate buffer), the Extinction coefficient was 73,000 (pH 7.2) M^−1cm^−1. Moreover, in data set [3], the “Maximum absorption wavelength” value was determined as 493 nm and the “Maximum emission wavelength” value is recorded as 522 nm.

Consider `O=C(NCC(O)C[n+]1cc(CC(O)(C(=O)O)P(=O)(O)O)n2ccccc21)c1ccc(C(=O)O)c(-c2c3ccc(=O)cc-3oc3cc(O)ccc23)c1` (stereo not shown) [Compound 6-FAM-MINPC, 3-(2-carboxy-2-hydroxy-2-phosphonoethyl)-1-(3-(4-carboxy-3-(6-hydroxy-3-oxo-3H-xanthen-9-yl)benzamido)-2-hydroxypropyl)imidazo[1,2-a]pyridin-1-ium], for which the Extinction coefficient in data set [2] (pH 7.2, 0.1M phosphate buffer) is 73,000 (pH 7.2) M^−1cm^−1. In data set [3], the “Maximum absorption wavelength” value was 493 nm and the “Maximum emission wavelength” value came to 517 nm.

For `O=C(NCC(O)C[n+]1cc(CC(O)(C(=O)O)P(=O)(O)O)n2ccccc21)c1ccc(-c2c3ccc(=O)cc-3oc3cc(O)ccc23)c(C(=O)O)c1` (stereo not shown) [Compound 5-FAM-MINPC, 3-(2-carboxy-2-hydroxy-2-phosphonoethyl)-1-(3-(3-carboxy-4-(6-hydroxy-3-oxo-3H-xanthen-9-yl)benzamido)-2-hydroxypropyl)imidazo[1,2-a]pyridin-1-ium], the Extinction coefficient in data set [2] (pH 7.2, 0.1M phosphate buffer) is 73,000 (pH 7.2) M^−1cm^−1. In data set [3], the “Maximum absorption wavelength” value is 493 nm and the “Maximum emission wavelength” value is 522 nm.

In the case of `CN1/C(=C/C=C/C=C/C2=[N+](CCCCCC(=O)NCC(O)C[n+]3ccn(CC(O)(P(=O)(O)O)P(=O)(O)O)c3)c3ccc(S(=O)(=O)[O-])cc3C2(C)C)C(C)(C)c2cc(S(=O)(=O)[O-])ccc21` (stereo not shown) [Sulfo-Cy5-ZOL, 1-(6-((2-hydroxy-3-(1-(2-hydroxy-2,2-diphosphonoethyl)-1H-imidazol-3-ium-3-yl)propyl)amino)-6-oxohexyl)-3,3-dimethyl-2-((1E,3E,5E)-5-(1,3,3-trimethyl-5-sulfonatoindolin-2-ylidene)penta-1,3-dien-1-yl)-3H-indol-1-ium-5-sulfonate], the Extinction coefficient in data set [2] (1x PBS, pH 7.4) is given as 271,000 (1x PBS, pH 7.4) M^−1cm^−1. Moreover, in data set [3], the “Maximum absorption wavelength” value was found to be 644 nm and the “Maximum emission wavelength” value worked out at 663 nm.

Values taken from patent US20180064829A1, “FLUORESCENT BISPHOSPHONATE ANALOGS” (University of Southern California, priority 2015, published 2018).
